Assay results taken from ChEMBL document CHEMBL3046358, “Multiple Pro-197 substitutions in the acetolactate synthase of rigid ryegrass (Lolium rigidum) and their impact on chlorsulfuron activity and plant growth” (Crop Prot, 2012).

Columns and labels:
Lolium rigidum [1] = experiment: Herbicidal activity against Lolium rigidum accession A01 assessed as emergence rate applied at 1 times pre-emergence recommended rate applied in pots where terbufos had been incorporated into the soil relative to untreated control; assay type: functional
Lolium rigidum [2] = experiment: Herbicidal activity against Lolium rigidum accession A14 assessed as fresh weight reduction applied at 4 times pre-emergence recommended rate relative to untreated control; assay type: functional; design: scale not given: the % may be the effect or the level left
Acetolactate synthase [3] = target: T1, Acetolactate synthase (Lolium rigidum, UniProt A7XBP7); experiment: Inhibition of acetolactate synthase Pro-197/Pro-197 mutant in Lolium rigidum accession A11 leaves extracts by acetolactate production assay; settings: read-out: I50
[4] = target: T2, Acetolactate synthase (Lolium rigidum) (UniProt A7XBP7); experiment: Resistance index, ratio of I50 for acetolactate synthase Pro-197/Pro-197 mutant in Lolium rigidum accession A09 leaves extracts to I50 for acetolactate synthase in Lolium rigidum accession A01 leaves extracts
T2 sequence (whole entry): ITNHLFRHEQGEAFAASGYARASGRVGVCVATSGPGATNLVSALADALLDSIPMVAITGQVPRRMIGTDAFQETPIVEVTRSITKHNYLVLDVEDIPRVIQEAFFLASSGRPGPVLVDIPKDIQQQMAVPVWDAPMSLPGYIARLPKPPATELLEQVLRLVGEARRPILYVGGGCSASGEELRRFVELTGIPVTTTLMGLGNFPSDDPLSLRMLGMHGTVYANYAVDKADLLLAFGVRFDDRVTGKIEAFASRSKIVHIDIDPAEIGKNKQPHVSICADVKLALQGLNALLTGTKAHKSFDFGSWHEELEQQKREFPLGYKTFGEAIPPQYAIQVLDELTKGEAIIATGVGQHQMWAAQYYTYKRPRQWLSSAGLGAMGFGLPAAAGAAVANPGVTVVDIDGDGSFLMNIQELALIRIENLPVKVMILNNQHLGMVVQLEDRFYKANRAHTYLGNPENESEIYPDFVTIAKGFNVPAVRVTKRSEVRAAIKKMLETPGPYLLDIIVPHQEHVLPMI

Acetolactate synthase [5] = target: T1, Acetolactate synthase; experiment: Inhibition of acetolactate synthase Ala-197/Ala-197 mutant in Lolium rigidum accession A20 leaves extracts by acetolactate production assay; settings: read-out: I50
[6] = target: T2, Acetolactate synthase (Lolium rigidum); experiment: Resistance index, ratio of I50 for acetolactate synthase Ser-197/Ser-197 mutant in Lolium rigidum accession A21 leaves extracts to I50 for acetolactate synthase in Lolium rigidum accession A01 leaves extracts
Lolium rigidum [7] = experiment: Herbicidal activity against Lolium rigidum accession A12 assessed as fresh weight reduction applied at 1 times pre-emergence recommended rate relative to untreated control; assay type: functional; design: scale not given: the % may be the effect or the level left
Lolium rigidum [8] = experiment: Herbicidal activity against Lolium rigidum accession A11 assessed as emergence rate applied at 1 times pre-emergence recommended rate applied in pots where terbufos had been incorporated into the soil relative to untreated control; assay type: functional
[9] = target: T2, Acetolactate synthase (Lolium rigidum); experiment: Resistance index, ratio of I50 for acetolactate synthase […]/Leu-197 mutant in Lolium rigidum accession A18 leaves extracts to I50 for acetolactate synthase in Lolium rigidum accession A01 leaves extracts
Lolium rigidum [10] = experiment: Herbicidal activity against Lolium rigidum accession A03 assessed as emergence rate applied at 4 times pre-emergence recommended rate relative to untreated control; assay type: functional
Acetolactate synthase [11] = target: T1, Acetolactate synthase; experiment: Inhibition of acetolactate synthase Pro-197/Pro-197 mutant in Lolium rigidum accession A10 leaves extracts by acetolactate production assay; settings: read-out: I50
Lolium rigidum [12] = experiment: Herbicidal activity against Lolium rigidum accession A13 assessed as emergence rate applied at 1 times pre-emergence recommended rate relative to untreated control; assay type: functional
Lolium rigidum [13] = experiment: Herbicidal activity against Lolium rigidum accession A09 assessed as fresh weight reduction applied at 1 times pre-emergence recommended rate applied in pots where terbufos had been incorporated into the soil relative to untreated control; assay type: functional; design: scale not given: the % may be the effect or the level left
Lolium rigidum [14] = experiment: Herbicidal activity against Lolium rigidum accession A14 assessed as emergence rate applied at 1 times pre-emergence recommended rate relative to untreated control; assay type: functional
Lolium rigidum [15] = experiment: Herbicidal activity against Lolium rigidum accession A02 assessed as emergence rate applied at 1 times pre-emergence recommended rate relative to untreated control; assay type: functional
Lolium rigidum [16] = experiment: Herbicidal activity against Lolium rigidum accession A05 assessed as emergence rate applied at 1 times pre-emergence recommended rate relative to untreated control; assay type: functional
Lolium rigidum [17] = experiment: Herbicidal activity against Lolium rigidum accession A09 assessed as emergence rate applied at 4 times pre-emergence recommended rate relative to untreated control; assay type: functional
Lolium rigidum [18] = experiment: Herbicidal activity against Lolium rigidum accession A10 assessed as emergence rate applied at 4 times pre-emergence recommended rate relative to untreated control; assay type: functional
Lolium rigidum [19] = experiment: Herbicidal activity against Lolium rigidum accession A07 assessed as fresh weight reduction applied at 1 times pre-emergence recommended rate relative to untreated control; assay type: functional; design: scale not given: the % may be the effect or the level left
Lolium rigidum [20] = experiment: Herbicidal activity against Lolium rigidum accession A14 assessed as emergence rate applied at 4 times pre-emergence recommended rate relative to untreated control; assay type: functional
Lolium rigidum [21] = experiment: Herbicidal activity against Lolium rigidum accession A07 assessed as emergence rate applied at 4 times pre-emergence recommended rate relative to untreated control; assay type: functional
Acetolactate synthase [22] = target: T3, Acetolactate synthase (Lolium rigidum, UniProt A7XBP7); experiment: Inhibition of acetolactate synthase in Lolium rigidum accession A01 leaves extracts by acetolactate production assay; settings: read-out: I50
T3 sequence (A7XBP7 whole entry): T2 sequence (whole entry)

Lolium rigidum [23] = experiment: Herbicidal activity against Lolium rigidum accession A13 assessed as emergence rate applied at 4 times pre-emergence recommended rate relative to untreated control; assay type: functional
Lolium rigidum [24] = experiment: Herbicidal activity against Lolium rigidum accession A13 assessed as emergence rate applied at 1 times pre-emergence recommended rate applied in pots where terbufos had been incorporated into the soil relative to untreated control; assay type: functional
Lolium rigidum [25] = experiment: Herbicidal activity against Lolium rigidum accession A05 assessed as emergence rate applied at 4 times pre-emergence recommended rate relative to untreated control; assay type: functional
Lolium rigidum [26] = experiment: Herbicidal activity against Lolium rigidum accession A02 assessed as emergence rate applied at 1 times pre-emergence recommended rate applied in pots where terbufos had been incorporated into the soil relative to untreated control; assay type: functional
Acetolactate synthase [27] = target: T1, Acetolactate synthase; experiment: Inhibition of acetolactate synthase Leu-197/Leu-197 mutant in Lolium rigidum accession A08 leaves extracts by acetolactate production assay; settings: read-out: I50
Acetolactate synthase [28] = target: Acetolactate synthase (Lolium rigidum, UniProt A7XBP7, P197L); experiment: Inhibition of acetolactate synthase Pro-197/Leu-197 mutant in Lolium rigidum accession A07 leaves extracts by acetolactate production assay; settings: read-out: I50
[29] = target: T2, Acetolactate synthase (Lolium rigidum); experiment: Resistance index, ratio of I50 for acetolactate synthase Ala-197/Ala-197 mutant in Lolium rigidum accession A19 leaves extracts to I50 for acetolactate synthase in Lolium rigidum accession A01 leaves extracts
Lolium rigidum [30] = experiment: Herbicidal activity against Lolium rigidum accession A01 assessed as emergence rate applied at 1 times pre-emergence recommended rate relative to untreated control; assay type: functional
Lolium rigidum [31] = experiment: Herbicidal activity against Lolium rigidum accession A01 assessed as fresh weight reduction applied at 4 times pre-emergence recommended rate relative to untreated control; assay type: functional; design: scale not given: the % may be the effect or the level left
Acetolactate synthase [32] = target: T1, Acetolactate synthase; experiment: Inhibition of acetolactate synthase Ala-197/Ala-197 mutant in Lolium rigidum accession A19 leaves extracts by acetolactate production assay; settings: read-out: I50
Lolium rigidum [33] = experiment: Herbicidal activity against Lolium rigidum accession A10 assessed as emergence rate applied at 1 times pre-emergence recommended rate relative to untreated control; assay type: functional
Lolium rigidum [34] = experiment: Herbicidal activity against Lolium rigidum accession A05 assessed as emergence rate applied at 1 times pre-emergence recommended rate applied in pots where terbufos had been incorporated into the soil relative to untreated control; assay type: functional
Lolium rigidum [35] = experiment: Herbicidal activity against Lolium rigidum accession A08 assessed as emergence rate applied at 1 times pre-emergence recommended rate relative to untreated control; assay type: functional

COc1nc(C)nc(NC(=O)NS(=O)(=O)c2ccccc2Cl)n1 [CHLORSULFURON]
Activity (Lolium rigidum [1]): 1%
Activity (Lolium rigidum [2]): 96%
IC50 (Acetolactate synthase [3]): 30 nM
Ratio [4]: 1
IC50 (Acetolactate synthase [5]): 1090 nM
Ratio [6]: 53
Activity (Lolium rigidum [7]): 95%
Activity (Lolium rigidum [8]): 2%
Ratio [9]: 54
Activity (Lolium rigidum [10]): 1%
IC50 (Acetolactate synthase [11]): 40 nM
Activity (Lolium rigidum [12]): 1%
Activity (Lolium rigidum [13]): 94%
Activity (Lolium rigidum [14]): 1%
Activity (Lolium rigidum [15]): 2%
Activity (Lolium rigidum [16]): 97%
Activity (Lolium rigidum [17]): 1%
Activity (Lolium rigidum [18]): 0%
Activity (Lolium rigidum [19]): 0%
Activity (Lolium rigidum [20]): 1%
Activity (Lolium rigidum [21]): 34%
IC50 (Acetolactate synthase [22]): 30 nM
Activity (Lolium rigidum [23]): 1%
Activity (Lolium rigidum [24]): 0%
Activity (Lolium rigidum [25]): 90%
Activity (Lolium rigidum [26]): 0%
IC50 (Acetolactate synthase [27]): 16.9 µM
IC50 (Acetolactate synthase [28]): 1820 nM
Ratio [29]: 620
Activity (Lolium rigidum [30]): 2%
Activity (Lolium rigidum [31]): 99%
IC50 (Acetolactate synthase [32]): 18.6 µM
Activity (Lolium rigidum [33]): 68%
Activity (Lolium rigidum [34]): 95%
Activity (Lolium rigidum [35]): 88%
